{
  "source": "ChEMBL document CHEMBL1201862",
  "about": "“PubChem BioAssay data set” (2004)",
  "assay_in_all_cases": "DTP human tumour cell line panel, 48 h",
  "key": {"786-0": {"tested_on": "786-0"}, "A498": {"tested_on": "A498"}, "A549": {"tested_on": "A549"}, "ACHN": {"tested_on": "ACHN"}, "CAKI-1": {"tested_on": "CAKI-1"}, "CCRF-CEM": {"tested_on": "CCRF-CEM"}, "DU-145": {"tested_on": "DU-145"}, "EKVX": {"tested_on": "EKVX"}, "HCT-116": {"tested_on": "HCT-116"}, "HCT-15": {"tested_on": "HCT-15"}, "HL-60": {"tested_on": "HL-60"}, "HOP-62": {"tested_on": "HOP-62"}, "HOP-92": {"tested_on": "HOP-92"}, "HT-29": {"tested_on": "HT-29"}, "Hs-578T": {"tested_on": "Hs-578T"}, "IGROV-1": {"tested_on": "IGROV-1"}, "K562": {"tested_on": "K562"}, "KM12": {"tested_on": "KM12"}, "LOX IMVI": {"tested_on": "LOX IMVI"}, "M14": {"tested_on": "M14"}, "MCF7": {"tested_on": "MCF7"}, "MDA-MB-231": {"tested_on": "MDA-MB-231"}, "MDA-MB-435": {"tested_on": "MDA-MB-435"}, "MDA-N": {"tested_on": "MDA-N"}, "MOLT-4": {"tested_on": "MOLT-4"}, "OVCAR-4": {"tested_on": "OVCAR-4"}, "OVCAR-5": {"tested_on": "OVCAR-5"}, "OVCAR-8": {"tested_on": "OVCAR-8"}, "PC-3": {"tested_on": "PC-3"}, "RPMI-8226": {"tested_on": "RPMI-8226"}, "RXF 393": {"tested_on": "RXF 393"}, "SF-268": {"tested_on": "SF-268"}, "SK-MEL-28": {"tested_on": "SK-MEL-28"}, "SK-MEL-2": {"tested_on": "SK-MEL-2"}, "SK-MEL-5": {"tested_on": "SK-MEL-5"}, "SK-OV-3": {"tested_on": "SK-OV-3"}, "SN12C": {"tested_on": "SN12C"}, "SNB-19": {"tested_on": "SNB-19"}, "SR": {"tested_on": "SR"}, "SW-620": {"tested_on": "SW-620"}, "TK-10": {"tested_on": "TK-10"}, "U-251": {"tested_on": "U-251"}, "UACC-257": {"tested_on": "UACC-257"}, "UACC-62": {"tested_on": "UACC-62"}},
  "note": "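In this assay, cells in 96-well plates receive the compound at five concentrations for 48 hours. Endpoints are linearly interpolated between the surrounding concentrations. Abbreviation: GI50, concentration required for 50% inhibition of growth.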 Active and inactive are the calls of the source. Rule as the data show it: active = GI50 up to about 1.1 µM and inactive = higher.",
  "data": [
    {"smiles": "CC(=O)Nc1oc(C)nc1C#N", "values": [
      {"measurement": "GI50", "setting": "786-0", "value": "> 100 µM (inactive)"},
      {"measurement": "GI50", "setting": "A498", "value": "> 100 µM (inactive)"},
      {"measurement": "GI50", "setting": "A549", "value": "> 100 µM (inactive)"},
      {"measurement": "GI50", "setting": "ACHN", "value": "> 100 µM (inactive)"},
      {"measurement": "GI50", "setting": "CAKI-1", "value": "> 100 µM (inactive)"},
      {"measurement": "GI50", "setting": "CCRF-CEM", "value": "> 100 µM (inactive)"},
      {"measurement": "GI50", "setting": "DU-145", "value": "> 100 µM (inactive)"},
      {"measurement": "GI50", "setting": "EKVX", "value": "> 100 µM (inactive)"},
      {"measurement": "GI50", "setting": "HCT-116", "value": "> 100 µM (inactive)"},
      {"measurement": "GI50", "setting": "HCT-15", "value": "> 100", "unit": "µM"},
      {"measurement": "GI50", "setting": "HL-60", "value": "> 100 µM (inactive)"},
      {"measurement": "GI50", "setting": "HOP-62", "value": "> 100 µM (inactive)"},
      {"measurement": "GI50", "setting": "HOP-92", "value": "> 100 µM (inactive)"},
      {"measurement": "GI50", "setting": "HT-29", "value": "> 100 µM (inactive)"},
      {"measurement": "GI50", "setting": "Hs-578T", "value": "> 100 µM (inactive)"},
      {"measurement": "GI50", "setting": "IGROV-1", "value": "> 100 µM (inactive)"},
      {"measurement": "GI50", "setting": "K562", "value": "> 100 µM (inactive)"},
      {"measurement": "GI50", "setting": "KM12", "value": "> 100 µM (inactive)"},
      {"measurement": "GI50", "setting": "LOX IMVI", "value": "> 100 µM (inactive)"},
      {"measurement": "GI50", "setting": "M14", "value": "> 100 µM (inactive)"},
      {"measurement": "GI50", "setting": "MCF7", "value": "> 100 µM (inactive)"},
      {"measurement": "GI50", "setting": "MDA-MB-231", "value": "> 100 µM (inactive)"},
      {"measurement": "GI50", "setting": "MDA-MB-435", "value": "> 100 µM (inactive)"},
      {"measurement": "GI50", "setting": "MDA-N", "value": "> 100 µM (inactive)"},
      {"measurement": "GI50", "setting": "MOLT-4", "value": "> 100 µM (inactive)"},
      {"measurement": "GI50", "setting": "OVCAR-4", "value": "> 100 µM (inactive)"},
      {"measurement": "GI50", "setting": "OVCAR-5", "value": "> 100 µM (inactive)"},
      {"measurement": "GI50", "setting": "OVCAR-8", "value": "> 100 µM (inactive)"},
      {"measurement": "GI50", "setting": "PC-3", "value": "> 100 µM (inactive)"},
      {"measurement": "GI50", "setting": "RPMI-8226", "value": "> 100 µM (inactive)"},
      {"measurement": "GI50", "setting": "RXF 393", "value": "> 100 µM (inactive)"},
      {"measurement": "GI50", "setting": "SF-268", "value": "> 100 µM (inactive)"},
      {"measurement": "GI50", "setting": "SK-MEL-28", "value": "> 100 µM (inactive)"},
      {"measurement": "GI50", "setting": "SK-MEL-2", "value": "> 100 µM (inactive)"},
      {"measurement": "GI50", "setting": "SK-MEL-5", "value": "> 100 µM (inactive)"},
      {"measurement": "GI50", "setting": "SK-OV-3", "value": "> 100 µM (inactive)"},
      {"measurement": "GI50", "setting": "SN12C", "value": "> 100 µM (inactive)"},
      {"measurement": "GI50", "setting": "SNB-19", "value": "> 100 µM (inactive)"},
      {"measurement": "GI50", "setting": "SR", "value": "> 100 µM (inactive)"},
      {"measurement": "GI50", "setting": "SW-620", "value": "> 100 µM (inactive)"},
      {"measurement": "GI50", "setting": "TK-10", "value": "> 100 µM (inactive)"},
      {"measurement": "GI50", "setting": "U-251", "value": "> 100 µM (inactive)"},
      {"measurement": "GI50", "setting": "UACC-257", "value": "> 100 µM (inactive)"},
      {"measurement": "GI50", "setting": "UACC-62", "value": "> 100 µM (inactive)"}
    ]}
  ]
}
